{"source": "patent US20030044399A1", "about": "“Method of treatment” (SmithKline Beecham Corporation, priority 1998, published 2003)"}
{"biological_target": "Cruzain (Trypanosoma cruzi, UniProt P25779)", "sequence (P25779 123-337)": "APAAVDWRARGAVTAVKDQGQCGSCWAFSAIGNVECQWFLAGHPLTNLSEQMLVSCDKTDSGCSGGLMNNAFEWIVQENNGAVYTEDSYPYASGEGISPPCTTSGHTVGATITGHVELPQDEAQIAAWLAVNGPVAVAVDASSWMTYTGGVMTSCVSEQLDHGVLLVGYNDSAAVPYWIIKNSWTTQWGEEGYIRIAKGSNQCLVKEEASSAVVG", "test": "Cysteine protease inhibition, progress curve method, cruzain", "format": "biochemical", "settings": "4 uM Ac-Lys-Glu-Lys-Leu-Arg-AMC, 100 mM Na acetate pH 5.5, 5 mM cysteine; read-out: Cruzain Ki", "procedure": "(§1) Standard assay conditions for the determination of kinetic constants used 10 uM fluorogenic peptide substrate, Cbz-Phe-Arg-AMC for the cysteine proteases from Leishmania spp and Schistosoma Mansoni, Cbz-Leu-Arg-AMC for the cysteine proteases from Plasmodium falciparum and Trypanosoma brucei rhodesiensi, and Ac-Lys-Glu-Lys-Leu-Arg-AMC (4 uM final substrate concentration) for the cysteine protease from Trypoanosoma cruzi, and were determined in 100 mM Na acetate at pH 5.5 containing 5 mM cysteine. Stock substrate solutions were prepared at concentrations of […] in DMSO with 10 uM (4 uM for Ac-Lys-Glu-Lys-Leu-Arg-AMC) final substrate concentration in the assays. The final DMSO concentration was 2% and the final volume was 100 uL. All assays were conducted at ambient temperature. Product progress curves were generated over 20 to 30 minutes following formation of AMC product.\n(§2) Potential inhibitors were evaluated using the progress curve method. Assays were carried out in the presence of variable concentrations of test compound. Reactions were initiated by addition of enzyme to buffered solutions of inhibitor and substrate. Data analysis was conducted according to one of two procedures depending on the appearance of the progress curves in the presence of inhibitors. For those compounds whose progress curves were linear, apparent inhibition constants (Ki,app) were calculated according to equation 1 (Brandt et al., Biochemitsry, 1989, 28, 140):\n(§3) v=VmA/[Ka(1+I/Ki,app)+A] (1)\n(§4) Where v is the velocity of the reaction with maximal velocity Vm, A is the concentration of substrate with Michaelis constant of Ka, and I is the concentration of inhibitor.\n(§5) [AMC]=vsst+(v0−vss)[1−exp (−kobst)]/kobs (2)\n(§6) Where [AMC] is the concentration of product formed over time t, v0 is the initial reaction velocity and vss is the final steady state rate. Values for kobs were then analyzed as a linear function of inhibitor concentration to generate an apparent second order rate constant (kobs/inhibitor concentration or kobs/[I]) describing the time-dependent inhibition. A complete discussion of this kinetic treatment has been fully described (Morrison et al., Adv. Enzymol. Relat. Areas Mol. Biol., 1988, 61, 201).\n(§7) Exemplary inhibition data for the compounds used in the present method collected in accordance with the above-described procedure are listed in Table I.", "units": {"Ki": "nM"}}
{"smiles": "COc1ccc(S(=O)(=O)N2CCCC(NC(=O)C(CC(C)C)NC(=O)c3cc4ccccc4o3)C(=O)C2)cc1", "note": "(stereo in doubt) [Example 74, Benzofuran-2-carboxylic acid {(S)-1-[1-(4-methoxy-benzenesulfonyl)-3-oxo-azepan-4-ylcarbamoyl]-3-methyl-butyl}-amide]", "Ki": 24}
{"smiles": "CC(C)C[C@H](NC(=O)c1ccc2c(c1)OCO2)C(=O)N[C@H]1CCCN(Cc2ccccc2)CC1=O", "note": "[Example 1, benzo[1,3]dioxole-5-carboxylic acid [(S)-1-(1-benzyl-3-oxoazepan-4-ylcarbamoyl)-3-methyl-butyl]amide]", "Ki": 58}
{"smiles": "CC(C)C[C@H](NC(=O)[C@H]1CCC(=O)N1Cc1ccccc1)C(=O)N[C@@H]1CCCN(S(=O)(=O)c2ccccn2)CC1=O", "note": "[Example 158]", "Ki": 6.8}
{"smiles": "CC(C)C[C@@H](NC(=O)c1cc(Br)c(Br)s1)C(=O)N[C@@H]1CCCN(S(=O)(=O)c2cccc[n+]2[O-])CC1=O", "note": "[Example 61, 4,5-Dibromo-thiophene-2-carboxylic acid {(S)-3-methyl-1-[3-oxo-1-(1-oxy-pyridine-2-sulfonyl)-azepan-4-ylcarbamoyl]-butyl}amide]", "Ki": 40}
{"smiles": "Cc1ccc(C(=O)N[C@H](CC(C)C)C(=O)N[C@@H]2CCCN(S(=O)(=O)c3cccc[n+]3[O-])CC2=O)cn1", "note": "[Example 118]", "Ki": 18}
{"smiles": "CC(C)C[C@@H](NC(=O)c1ccc(S(C)(=O)=O)cc1)C(=O)N[C@@H]1CCCN(S(=O)(=O)c2ccc(F)cc2)CC1=O", "note": "[Example 121, 4-Methansulfonyl-N—{(S)-1-[4-fluoro-benzenesulfonyl)-3-oxo-azepan-4-carbamoyl]-3-methyl-butyl-benzamide]", "Ki": 11}
{"smiles": "CC(C)C[C@H](NC(=O)c1cnc2ccccc2n1)C(=O)N[C@H]1CCCN(S(=O)(=O)c2ccccc2F)CC1=O", "note": "[Example 96, Quinoxaline-2-carboxylic acid-{(S)-1-[1-(2-fluoro-benzenesulonyl)-3-oxo-azepan-4-ylcarbamoyl]-3-methyl-butyl}-amide]", "Ki": 8.7}
{"smiles": "CC(C)C[C@@H](NC(=O)c1cc2ccccc2[nH]1)C(=O)N[C@@H]1CCCN(S(=O)(=O)c2ccccc2)CC1=O", "note": "(stereo in doubt) [Example 11, 1H-Indole-2-carboxylic acid [(S)-1-(1-benzenesulfonyl-3-oxo-azepan-4-ylcarbamoyl)-3-methyl-butyl]amide]", "Ki": 100}
{"smiles": "CC(C)C[C@@H](NC(=O)c1ccc2ccccc2n1)C(=O)N[C@@H]1CCCN(S(=O)(=O)c2ccccn2)CC1=O", "note": "(stereo in doubt) [Example 24, Quinoline-2-carboxylic acid {(S)-3-methyl-1-[3-oxo-1-(pyridine-2-sulfonyl)-azepan-4-ylcarbamoyl]-butyl}amide]", "Ki": 23}
{"smiles": "Cc1c(C(=O)N[C@H](CC(C)C)C(=O)N[C@H]2CCCN(S(=O)(=O)c3cccc[n+]3[O-])CC2=O)oc2ccc(F)cc12", "note": "[Example 192, 5-Fluoro-3-methyl-benzofuran-2-carboxylic acid {(S)-3-methyl-1-[3-oxo-1-(1-oxy-pyridine-2-sulfonyl)-azepan-4-ylcarbamoyl]-butyl}-amide]", "Ki": 14}
{"smiles": "CC(C)C[C@@H](NC(=O)c1cc2ccccc2cn1)C(=O)N[C@@H]1CCCN(S(=O)(=O)c2ccccn2)CC1=O", "note": "(stereo in doubt) [Example 28, Isoquinoline-3-carboxylic acid {(S)-3-methyl-1-[3-oxo-1-(pyridine-2-sulfonyl)-azepan-4-ylcarbamoyl]-butyl}amide]", "Ki": 24}
{"smiles": "CC(C)CCC(=O)N1CCCC(NC(=O)[C@@H](CC(C)C)NC(=O)c2cc3cc(OCCN4CCOCC4)ccc3o2)C(=O)C1", "note": "(stereo partly drawn) [Example 15, 5-(2-Morpholino-4-yl-ethoxy)-benzofuran-2-carboxylic acid {(S)-3-methyl-1-[1-(4-methyl-2entanoyl)-3-oxo-azepan-4-ylcarbamoyl]-butyl}-amide]", "Ki": 24}
{"smiles": "CC(C)C[C@H](NC(=O)c1cc2ccccc2s1)C(=O)NC1CCCN(S(C)(=O)=O)CC1=O", "note": "(stereo partly drawn) [Example 111, Benzo[b]thiophene-2-carboxylic acid-{(S)-1-(1-methanesulfonyl-3-oxo-azepan-4-ylcarbamoyl)-3-methyl-butyl]-amide]", "Ki": 18}
{"smiles": "CC(C)C[C@@H](NC(=O)c1cc2cc(OCCN3CCOCC3)ccc2o1)C(=O)N[C@@H]1CCCN(S(=O)(=O)c2ccccc2)CC1=O", "note": "(stereo in doubt) [Example 6, 5-(2-Morpholin-4-yl-ethoxy)-benzofuran-2-carboxylic acid [(S)-1-(1-benzenesulfonyl-3-oxo-azepan-4-ylcarbamoyl)-3-methyl-butyl]amide]", "Ki": 21}
{"smiles": "CC(C)C[C@H](NC(=O)c1ccc2ccccc2n1)C(=O)NC1CCCN(Cc2ccccc2)CC1=O", "note": "(stereo partly drawn) [Example 2, Quinoline-2-carboxylic acid [(S)-1-(1-benzyl-3-oxo-azepan-4-ylcarbamoyl)-3-methyl-butyl]amide]", "Ki": 44}
{"smiles": "CC(C)C[C@@H](NC(=O)c1cc2cc(OCCN3CCOCC3)ccc2o1)C(=O)N[C@@H]1CCCN(S(=O)(=O)c2ccccn2)CC1=O", "note": "(single isomer, unassigned) [Example 20]", "Ki": 8}
{"smiles": "CC(C)C[C@@H](NC(=O)c1cc2cc(F)c(F)cc2o1)C(=O)N[C@H]1CCCN(S(=O)(=O)c2cccc[n+]2[O-])CC1=O", "note": "[Example 163, 5,6-Difluoro-benzofuran-2-carboxylic acid {(S)-3-methyl-1-[3-oxo-1-(1-oxy-pyridine-2-sulfonyl)-azepan-4-ylcarbamoyl]-butyl}amide]", "Ki": 13}
{"smiles": "CC(C)C[C@@H](NC(=O)c1cc2cc(OCCN3CCCC3)ccc2o1)C(=O)N[C@@H]1CCCN(S(=O)(=O)c2ccccc2)CC1=O", "note": "(stereo in doubt) [Example 8, 5-(2-Pyrrolidin-1-yl-ethoxy)-benzofuran-2-carboxylic acid [(S)-1-(1-benzenesulfonyl-3-oxo-azepan-4-ylcarbamoyl)-3-methyl-butyl]amide]", "Ki": 8}
{"smiles": "COc1ccc(S(=O)(=O)N2CCC[C@H](NC(=O)[C@H](CC(C)C)NC(=O)CNC(=O)c3ccco3)C(=O)C2)cc1", "note": "[Example 82]", "Ki": 17}
{"smiles": "CC(C)C[C@@H](NC(=O)c1cc2cc(OCCN3CCOCC3)ccc2o1)C(=O)NC1CCCN(S(=O)(=O)c2cccc[n+]2[O-])CC1=O", "note": "(stereo partly drawn) [Example 56, 5-(2-Morpholin-4-yl-ethoxy)-benzofuran-2-carboxylic acid {(S)-3-methyl-1-[3-oxo-(1-oxy-pyridine2-sulfonyl)-azepan-4-ylcarbamoyl]-buty}-amide]", "Ki": 7.8}
{"smiles": "CC(C)C[C@@H](NC(=O)c1nccc2ccccc12)C(=O)N[C@@H]1CCCN(S(=O)(=O)c2ccccn2)CC1=O", "note": "(stereo in doubt) [Example 29, Isoquinoline-1-carboxylic acid {(S)-3-methyl-1-[3-oxo-1-(pyridine-2-sulfonyl)-azepan-4-ylcarbamoyl]-butyl}amide]", "Ki": 11}
{"smiles": "CC(C)C[C@H](NC(=O)c1cnc2ccccc2n1)C(=O)N[C@@H]1CCCN(S(=O)(=O)c2cccs2)CC1=O", "note": "[Example 147, Quinoxaline-2-carboxylic acid-{(S)-3-methyl-1-[3-oxo-1-(thiophene-2-sulfonyl)-azepan-4-ylcarbamoyl]-butyl}-amide]", "Ki": 7.5}
{"smiles": "CC(C)CC(NC(=O)NCc1ccccc1)C(=O)NC1CCCN(S(=O)(=O)c2ccccn2)CC1=O", "note": "[Example 80, (S)-2-(3-Benzyl-ureido)-4-methyl-pentanoic acid [3-oxo-carboxylic-(pyridine-2-sulfonyl)azepan4-yl]-amide]", "Ki": 15}
{"smiles": "COc1ccc2oc(C(=O)N[C@H](CC(C)C)C(=O)N[C@@H]3CCCN(S(=O)(=O)c4ccccn4)CC3=O)cc2c1", "note": "(stereo in doubt) [Example 33, 5-Methoxy-benzofuran-2-carboxylic acid {(S)-3-methyl-1-[3-oxo-1-(pyridine-2-sulfonyl)-azepan-4-ylcarbamoyl]-butyl}amide]", "Ki": 14}
{"smiles": "CC(C)C[C@H](NC(=O)c1cc2ccccc2o1)C(=O)N[C@H]1CCCN(S(=O)(=O)c2ccccc2F)CC1=O", "note": "[Example 91]", "Ki": 6.2}
{"smiles": "CC(C)C[C@@H](NC(=O)c1cc2cc(OCCN3CCOCC3)ccc2o1)C(=O)N[C@@H]1CCCN(S(=O)(=O)c2ccccn2)CC1=O", "note": "(single isomer, unassigned) [Example 19]", "Ki": 2}
{"smiles": "CC(C)C[C@@H](NC(=O)c1cc2cc(OCCN3CCCCC3)ccc2o1)C(=O)NC1CCCN(S(=O)(=O)c2ccccc2)CC1=O", "note": "(single isomer, unassigned) [Example 14]", "Ki": 67}
{"biological_target": "Cruzain (Trypanosoma cruzi, UniProt P25779)", "test": "Cysteine protease inhibition, progress curve method, cruzain", "format": "biochemical", "settings": "Cruzain Ki nM, 4 uM Ac-Lys-Glu-Lys-Leu-Arg-AMC, 100 mM Na acetate pH 5.5, 5 mM cysteine", "procedure": "as §1, §2, §3, §4, §5, §6, §7", "units": {"Ki": "nM"}}
{"smiles": "Cc1c(C(=O)NC(CC(C)C)C(=O)NC2CCCN(S(=O)(=O)c3cccc[n+]3[O-])CC2=O)oc2ccc3ccccc3c12", "note": "[Example 210, 1-methyl-naphtho[2,1-b]-furan-2-carboxylic acid {(S)-3-methyl-1-[3oxo-1-(1-oxy-pyridine-2-sulfonyl)-azepan-4-ylcarbamoyl]-butyl}-amide]", "Ki": 6.6}
